# Assay results taken from ChEMBL document CHEMBL4819111, “Steroidal alkaloids isolated from Veratrum grandiflorum Loes. as novel Smoothened inhibitors with anti-proliferation effects on DAOY medulloblastoma cells” (Bioorg Med Chem, 2021).
# Experiments:
# Daoy [1] = experiment: Antiproliferative activity against human DAOY cells assessed as cell viability at 10 to 30 uM incubated for 24 hrs by MTT assay relative to control; format: functional; conditions: dose 10-30 µM
# [2] = target: Protein smoothened (Homo sapiens) (UniProt Q99835); experiment: Binding affinity to recombinant human Flag-6 x His-tagged Smo expressed in human HEK293T cells assessed as reduction in BODIPY-Cyclopamine binding by measuring fluorescence intensity at 3 uM incubated for 2 to 4 hrs by fluorescence microscopic competitive binding analysis relative to control; format: cell-based; set-up: scale not given: the % may be the effect or the level left; conditions: time 2-4 hrs
# Chain of Protein smoothened (Homo sapiens) (Q99835 whole entry): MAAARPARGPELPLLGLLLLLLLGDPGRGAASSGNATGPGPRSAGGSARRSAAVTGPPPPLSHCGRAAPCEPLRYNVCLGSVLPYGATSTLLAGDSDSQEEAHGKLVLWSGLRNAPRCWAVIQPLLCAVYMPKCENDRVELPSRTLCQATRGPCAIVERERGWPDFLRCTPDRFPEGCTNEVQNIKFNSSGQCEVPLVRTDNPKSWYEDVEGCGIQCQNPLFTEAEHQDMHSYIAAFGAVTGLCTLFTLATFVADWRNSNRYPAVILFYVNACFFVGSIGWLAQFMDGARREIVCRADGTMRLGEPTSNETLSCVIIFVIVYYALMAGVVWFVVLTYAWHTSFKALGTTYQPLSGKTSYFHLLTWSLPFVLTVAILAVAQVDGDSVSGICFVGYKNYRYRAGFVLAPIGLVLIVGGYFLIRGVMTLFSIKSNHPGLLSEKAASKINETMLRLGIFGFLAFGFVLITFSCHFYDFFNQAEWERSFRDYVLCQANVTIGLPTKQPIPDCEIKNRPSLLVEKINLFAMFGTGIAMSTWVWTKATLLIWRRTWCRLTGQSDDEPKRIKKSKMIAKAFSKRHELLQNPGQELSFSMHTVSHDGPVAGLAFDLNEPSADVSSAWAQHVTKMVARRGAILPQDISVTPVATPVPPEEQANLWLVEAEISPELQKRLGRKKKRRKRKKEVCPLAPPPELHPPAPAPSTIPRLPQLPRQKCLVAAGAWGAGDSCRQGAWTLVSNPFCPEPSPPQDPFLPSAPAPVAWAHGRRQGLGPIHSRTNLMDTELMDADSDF
# [3] = Inhibition of hedgehog pathway in mouse Shh Light II cells transfected with Renilla luciferase and firefly luciferase incubated for 48 hrs by dual luciferase reporter gene assay; format: cell-based
# [4] = target: Protein smoothened (Homo sapiens) (UniProt Q99835); experiment: Binding affinity to recombinant human Flag-6 x His-tagged Smo expressed in human HEK293T cells assessed as reduction in BODIPY-Cyclopamine binding by measuring fluorescence intensity at 30 uM incubated for 2 to 4 hrs by fluorescence microscopic competitive binding analysis relative to control; format: cell-based; set-up: scale not given: the % may be the effect or the level left; conditions: time 2-4 hrs
# Daoy [5] = experiment: Antiproliferative activity against human DAOY cells assessed as cell viability at 0.2 uM incubated for 24 hrs by MTT assay relative to control; format: functional; conditions: read-out: Activity
# [6] = target: Protein smoothened (Homo sapiens) (UniProt Q99835); experiment: Binding affinity to recombinant human Flag-6 x His-tagged Smo expressed in human HEK293T cells assessed as reduction in BODIPY-Cyclopamine binding by measuring fluorescence intensity incubated for 2 to 4 hrs by fluorescence microscopic based competitive binding analysis; format: cell-based; conditions: dose 3-30 µM, time 2-4 hrs
# Daoy [7] = experiment: Antiproliferative activity against human DAOY cells assessed as cell viability at 30 uM incubated for 24 hrs by MTT assay relative to control; format: functional; conditions: read-out: Activity
# Daoy [8] = experiment: Antiproliferative activity against human DAOY cells assessed as reduction in cell viability incubated for 24 hrs by MTT assay; format: functional, cell-based
SMILES,IC50 [3],Activity [4],Activity [6],Activity (Daoy [1]),Activity [2],viability at 0.2 µM (Daoy [5]),viability at 30 µM (Daoy [7]),IC50 (Daoy [8]),inhibition (Daoy [8])
C[C@H]1CC[C@@H]([C@@H](C)[C@]2(C)CCC3C2=CCC2C3CC=C3C[C@@H](O[C@@H]4O[C@H](CO)[C@@H](O)[C@H](O)[C@H]4O[C@@H]4O[C@@H](C)[C@H](O)[C@@H](O)[C@H]4O)CC[C@@]32C)NC1 (stereo not given in full),12.3 µM,–,–,79.45%,53.3%,–,–,–,–
C[C@H]1CC[C@@H]2N(C1)C[C@H]1[C@@H]3C[C@H]4[C@@H](CC=C5C[C@@H](O)CC[C@@]54C)[C@@H]3C[C@H](O)[C@@H]1[C@]2(C)O,0.95 µM,42.8%,–,79.45%,–,–,–,–,–
CS(=O)(=O)c1ccc(C(=O)Nc2ccc(Cl)c(-c3ccccn3)c2)c(Cl)c1 [VISMODEGIB],0.07 µM,–,–,–,–,91.5%,–,–,–
C[C@H]1CCC([C@@H](C)[C@H]2CC[C@H]3[C@@H]4CC=C5C[C@@H](O)CC[C@]5(C)[C@H]4CC[C@]23C)=NC1 [VERAZINE],1.11 µM,47.1%,Dose-Dependent Effect,79.45%,–,–,–,–,–
C[C@@H]1CCN=C([C@@H](C)[C@H]2CC[C@H]3[C@@H]4CC=C5C[C@@H](O)CC[C@]5(C)[C@H]4CC[C@]23C)C1=O,5.81 µM,58.7%,Dose-Dependent Effect,79.45%,–,–,–,–,–
C[C@@H]1CCN=C([C@H](C)[C@H]2CC[C@H]3[C@@H]4CC=C5C[C@@H](O)CC[C@]5(C)[C@H]4CC[C@]23C)C1=O,1.62 µM,54.5%,Dose-Dependent Effect,79.45%,–,–,–,–,–
CC1=C2C(=O)[C@H]3C(CC=C4C[C@@H](O)CC[C@@]43C)[C@@H]2CC[C@]12O[C@@H]1C[C@H](C)CN[C@H]1[C@H]2C (stereo not given in full),2.35 µM,–,–,79.45%,22.3%,–,–,–,–

# The remaining compounds from weak to strong by IC50 [3], led by results:
IC50 [3],Activity [4],Activity [6],SMILES,Activity (Daoy [1]),Activity [2],viability at 0.2 µM (Daoy [5]),viability at 30 µM (Daoy [7]),IC50 (Daoy [8]),inhibition (Daoy [8])
14.3 µM,69.4%,–,CC[C@H](C)C(=O)O[C@H]1[C@H](O)[C@H]2[C@@H](CN3C[C@@H](C)CC[C@H]3[C@@]2(C)O)[C@@H]2C[C@@]34O[C@]5(O)[C@@H]([C@@H](O)[C@@H](O)[C@H]3[C@@]21O)[C@]4(C)CC[C@@H]5O,79.45%,–,–,–,–,–
3.26 µM,53.2%,Dose-Dependent Effect,C[C@H]1CCC([C@H](C)[C@H]2CC[C@H]3[C@@H]4CC=C5C[C@@H](O)CC[C@]5(C)[C@H]4CC[C@]23C)=NC1,79.45%,–,–,–,–,–
0.72 µM,45.1%,–,C[C@H]1CC[C@@H]2[C@@H](C)[C@H]3[C@H](C[C@H]4[C@@H]5CC=C6C[C@@H](O[C@@H]7O[C@H](CO)[C@@H](O)[C@H](O)[C@H]7O[C@@H]7O[C@@H](C)[C@H](O)[C@@H](O)[C@H]7O)CC[C@]6(C)[C@H]5CC[C@]34C)N2C1,–,–,–,13%,5.35 µM,Dose-Dependent Effect
